Source: the NIST ThermoML archive (doi:10.1016/j.jct.2010.08.021)

Assay: mn = molality of the nth substance listed, in mol/kg
Details: 101 kPa, Liquid; for speed of sound: Sing-around technique in a fixed-path interferometer; for mass density: Vibrating tube method

NCC(=O)O [2-aminoacetic acid] + O
Details	mass density [kg/m3]	speed of sound [m/s]
288.15 K, m1 = 0.0303	1000.1	1468.3
288.15 K, m1 = 0.0407	1000.43	1468.9
288.15 K, m1 = 0.0487	1000.69	1469.4
288.15 K, m1 = 0.0549	1000.89	1469.7
288.15 K, m1 = 0.0649	1001.22	1470.3
288.15 K, m1 = 0.066	1001.25	1470.3
288.15 K, m1 = 0.0799	1001.7	1471.1
288.15 K, m1 = 0.0959	1002.22	1472
288.15 K, m1 = 0.1125	1002.76	1472.9
288.15 K, m1 = 0.1349	1003.48	1474.1
288.15 K, m1 = 0.1608	1004.3	1475.5
288.15 K, m1 = 0.1908	1005.26	1477.2
288.15 K, m1 = 0.2165	1006.07	1478.6
288.15 K, m1 = 0.2303	1006.51	1479.4
288.15 K, m1 = 0.2506	1007.15	1480.5
288.15 K, m1 = 0.2735	1007.87	1481.8
293.15 K, m1 = 0.0303	999.187	1484.4
293.15 K, m1 = 0.0407	999.52	1484.9
293.15 K, m1 = 0.0487	999.773	1485.4
293.15 K, m1 = 0.0549	999.972	1485.7
293.15 K, m1 = 0.0649	1000.29	1486.2
293.15 K, m1 = 0.066	1000.32	1486.3
293.15 K, m1 = 0.0799	1000.77	1487
293.15 K, m1 = 0.0959	1001.28	1487.9
293.15 K, m1 = 0.1125	1001.81	1488.8
293.15 K, m1 = 0.1349	1002.52	1489.9
293.15 K, m1 = 0.1608	1003.34	1491.3
293.15 K, m1 = 0.1908	1004.28	1493
293.15 K, m1 = 0.2165	1005.08	1494.4
293.15 K, m1 = 0.2303	1005.52	1495.1
293.15 K, m1 = 0.2506	1006.15	1496.2
293.15 K, m1 = 0.2735	1006.86	1497.4
298.15 K, m1 = 0.0303	–	1498.6
298.15 K, m1 = 0.0407	998.344	1499.1
298.15 K, m1 = 0.0487	–	1499.5
298.15 K, m1 = 0.0549	998.79	1499.9
298.15 K, m1 = 0.0649	999.104	1500.4
298.15 K, m1 = 0.066	999.138	1500.4
298.15 K, m1 = 0.0799	999.58	1501.2
298.15 K, m1 = 0.0959	1000.09	1502
298.15 K, m1 = 0.1125	1000.61	1502.9
298.15 K, m1 = 0.1349	1001.31	1504
298.15 K, m1 = 0.1608	1002.12	1505.3
298.15 K, m1 = 0.1908	1003.05	1506.9
298.15 K, m1 = 0.2165	1003.84	1508.2
298.15 K, m1 = 0.2303	1004.27	1508.9
298.15 K, m1 = 0.2506	1004.9	1510
298.15 K, m1 = 0.2735	1005.61	1511.2
303.15 K, m1 = 0.0303	996.608	1510.9
303.15 K, m1 = 0.0407	996.933	1511.4
303.15 K, m1 = 0.0487	–	1511.8
303.15 K, m1 = 0.0549	997.375	1512.2
303.15 K, m1 = 0.0649	–	1512.7
303.15 K, m1 = 0.066	–	1512.7
303.15 K, m1 = 0.0799	998.158	1513.4
303.15 K, m1 = 0.0959	998.661	1514.3
303.15 K, m1 = 0.1125	999.18	1515.1
303.15 K, m1 = 0.1349	999.878	1516.2
303.15 K, m1 = 0.1608	1000.67	1517.5
303.15 K, m1 = 0.1908	1001.6	1519
303.15 K, m1 = 0.2165	1002.38	1520.3
303.15 K, m1 = 0.2303	1002.81	1521
303.15 K, m1 = 0.2506	1003.43	1522
303.15 K, m1 = 0.2735	1004.13	1523.2
308.15 K, m1 = 0.0303	994.983	1521.5
308.15 K, m1 = 0.0407	–	1522
308.15 K, m1 = 0.0487	995.552	1522.5
308.15 K, m1 = 0.0549	–	1522.8
308.15 K, m1 = 0.0649	–	1523.3
308.15 K, m1 = 0.066	–	1523.3
308.15 K, m1 = 0.0799	–	1524
308.15 K, m1 = 0.0959	997.02	1524.8
308.15 K, m1 = 0.1125	997.536	1525.6
308.15 K, m1 = 0.1349	998.23	1526.7
308.15 K, m1 = 0.1608	999.021	1528
308.15 K, m1 = 0.1908	999.936	1529.5
308.15 K, m1 = 0.2165	1000.72	1530.7
308.15 K, m1 = 0.2303	1001.14	1531.4
308.15 K, m1 = 0.2506	1001.76	1532.4
308.15 K, m1 = 0.2735	1002.45	1533.5
313.15 K, m1 = 0.0303	993.159	1530.6
313.15 K, m1 = 0.0407	993.481	1531.1
313.15 K, m1 = 0.0487	993.725	1531.5
313.15 K, m1 = 0.0549	993.917	1531.8
313.15 K, m1 = 0.0649	994.224	1532.3
313.15 K, m1 = 0.066	994.257	1532.3
313.15 K, m1 = 0.0799	994.689	1533
313.15 K, m1 = 0.0959	995.187	1533.8
313.15 K, m1 = 0.1125	–	1534.6
313.15 K, m1 = 0.1349	–	1535.6
313.15 K, m1 = 0.1608	–	1536.9
313.15 K, m1 = 0.1908	998.083	1538.3
313.15 K, m1 = 0.2165	–	1539.5
313.15 K, m1 = 0.2303	999.28	1540.2
313.15 K, m1 = 0.2506	999.893	1541.2
313.15 K, m1 = 0.2735	1000.58	1542.3

N[C@@H](CO)C(=O)O [L-serine] + O
Details	mass density [kg/m3]	speed of sound [m/s]
288.15 K, m1 = 0.0192	999.979	1467.9
288.15 K, m1 = 0.028	1000.38	1468.5
288.15 K, m1 = 0.037	1000.78	1468.9
288.15 K, m1 = 0.043	1001.05	1469.4
288.15 K, m1 = 0.0486	1001.3	1469.8
288.15 K, m1 = 0.057	1001.68	1470.3
288.15 K, m1 = 0.0657	1002.07	1470.9
288.15 K, m1 = 0.0804	1002.73	1471.8
288.15 K, m1 = 0.0942	1003.34	1472.7
288.15 K, m1 = 0.1156	1004.3	1474.1
288.15 K, m1 = 0.1329	1005.07	1475.2
288.15 K, m1 = 0.1535	1005.99	1476.6
288.15 K, m1 = 0.1642	1006.46	1477.3
288.15 K, m1 = 0.1789	1007.11	1478.3
288.15 K, m1 = 0.1944	1007.8	1479.2
293.15 K, m1 = 0.0192	999.07	1484
293.15 K, m1 = 0.028	999.466	1484.5
293.15 K, m1 = 0.037	999.867	1485
293.15 K, m1 = 0.043	1000.13	1485.4
293.15 K, m1 = 0.0486	1000.38	1485.8
293.15 K, m1 = 0.057	1000.75	1486.3
293.15 K, m1 = 0.0657	1001.14	1486.8
293.15 K, m1 = 0.0804	1001.79	1487.8
293.15 K, m1 = 0.0942	1002.4	1488.7
293.15 K, m1 = 0.1156	1003.35	1490
293.15 K, m1 = 0.1329	1004.11	1491.1
293.15 K, m1 = 0.1535	1005.02	1492.4
293.15 K, m1 = 0.1642	1005.49	1493.1
293.15 K, m1 = 0.1789	1006.13	1494
293.15 K, m1 = 0.1944	1006.81	1495
298.15 K, m1 = 0.0192	997.9	1498.2
298.15 K, m1 = 0.028	998.291	1498.8
298.15 K, m1 = 0.037	998.691	1499.2
298.15 K, m1 = 0.043	998.951	1499.6
298.15 K, m1 = 0.0486	999.198	1500
298.15 K, m1 = 0.057	999.564	1500.5
298.15 K, m1 = 0.0657	999.952	1501
298.15 K, m1 = 0.0804	1000.6	1501.9
298.15 K, m1 = 0.0942	1001.2	1502.7
298.15 K, m1 = 0.1156	1002.14	1504
298.15 K, m1 = 0.1329	1002.89	1505.1
298.15 K, m1 = 0.1535	1003.79	1506.4
298.15 K, m1 = 0.1642	1004.26	1507
298.15 K, m1 = 0.1789	1004.89	1507.9
298.15 K, m1 = 0.1944	1005.57	1508.8
303.15 K, m1 = 0.0192	996.495	1510.5
303.15 K, m1 = 0.028	996.883	1511.1
303.15 K, m1 = 0.037	997.277	1511.5
303.15 K, m1 = 0.043	997.539	1511.9
303.15 K, m1 = 0.0486	997.781	1512.3
303.15 K, m1 = 0.057	998.143	1512.8
303.15 K, m1 = 0.0657	998.53	1513.2
303.15 K, m1 = 0.0804	999.17	1514.1
303.15 K, m1 = 0.0942	999.763	1514.9
303.15 K, m1 = 0.1156	1000.7	1516.2
303.15 K, m1 = 0.1329	1001.45	1517.2
303.15 K, m1 = 0.1535	1002.34	1518.5
303.15 K, m1 = 0.1642	1002.8	1519.1
303.15 K, m1 = 0.1789	1003.43	1520
303.15 K, m1 = 0.1944	1004.1	1520.8
308.15 K, m1 = 0.0192	994.871	1521.2
308.15 K, m1 = 0.028	995.258	1521.7
308.15 K, m1 = 0.037	995.648	1522.1
308.15 K, m1 = 0.043	995.908	1522.5
308.15 K, m1 = 0.0486	996.152	1522.9
308.15 K, m1 = 0.057	996.512	1523.4
308.15 K, m1 = 0.0657	996.896	1523.8
308.15 K, m1 = 0.0804	997.529	1524.7
308.15 K, m1 = 0.0942	998.119	1525.5
308.15 K, m1 = 0.1156	999.047	1526.7
308.15 K, m1 = 0.1329	999.793	1527.7
308.15 K, m1 = 0.1535	1000.68	1528.9
308.15 K, m1 = 0.1642	1001.14	1529.5
308.15 K, m1 = 0.1789	1001.76	1530.3
308.15 K, m1 = 0.1944	1002.43	1531.2
313.15 K, m1 = 0.0192	993.05	1530.3
313.15 K, m1 = 0.028	993.434	1530.8
313.15 K, m1 = 0.037	993.821	1531.2
313.15 K, m1 = 0.043	994.079	1531.6
313.15 K, m1 = 0.0486	994.322	1532
313.15 K, m1 = 0.057	994.68	1532.4
313.15 K, m1 = 0.0657	995.061	1532.8
313.15 K, m1 = 0.0804	995.691	1533.7
313.15 K, m1 = 0.0942	996.279	1534.4
313.15 K, m1 = 0.1156	997.203	1535.7
313.15 K, m1 = 0.1329	997.943	1536.6
313.15 K, m1 = 0.1535	998.827	1537.8
313.15 K, m1 = 0.1642	999.283	1538.4
313.15 K, m1 = 0.1789	999.905	1539.2
313.15 K, m1 = 0.1944	1000.57	1540
